Results as given in patent US20070227399A1, “COMPOSITIONS AND METHODS FOR THE PRESERVATION OF WOOD” (Novus International Inc., priority 2006, published 2007).

What was measured:
[1] = system: Gloeophyllum trabeum (ATCC 11539); test: AWPA E10-01 laboratory soil-block culture decay test of treated southern pine blocks; format: cell-based; conditions: for Mean percent weight loss (s.d. in parentheses), G. trabeum: unleached southern pine blocks, 12 weeks, n = 5
Procedure: (§1) The decay resistance of southern pine treated with six experimental wood preservative formulations and exposed to two brown rot fungal species were tested using the AWPA E10-01 “Standard Method of Testing Wood Preservatives by Laboratory Soil-Block Cultures.” For this, conditioned blocks of wood are treated with suitable solutions of preservative. After a conditioning period, the wood blocks are exposed to a recognized destructive species of wood-destroying fungi. The minimum amount of preservative that protects the wood blocks against decay by a given fungus is defined as the threshold retention for that organism. Failure to protect is evidenced by loss of mass from the treated wood blocks, as indicated by a loss of weight.
(§2) Preparation of wood. Southern pine sapwood (Pinus spp.) with 6-10 rings/inch and clear of knots or other obvious defects was used. The wood was milled into test blocks of 19 mm×19 mm×19 mm. The test cubes were divided into density groups of ±5%, with 5 blocks per treatment or control. One feeder strip is needed for each block in a culture bottle. The sapwood selected for feeder strips should be capable of furnishing a satisfactory growth of the test fungus. Southern pine sapwood feeder strips were cut to approximately 3 by 28 by 34 mm with the grain of the wood parallel to either of the long dimensions and with the edge grain (radial surface) exposed to the flat face, insofar as possible.
(§3) The test blocks were pressure treated with the test preservatives, solvent alone, or two control wood preservatives, ACQ-Type D and propiconazole […] according to procedures detailed in AWPA Standard E7-01. Several of the compounds detailed in Table 1 are commercially available from Novus International, Saint Louis, Mo. (i.e., the composition abbreviated Biox AUSD is a blend of organic acid, inorganic acid and HMTBA and is sold under the trade name ACTIVATE® US WD; the compound abbreviated Biox C is HMBTA-Cu and is sold under the trade name MINTREX® Cu; the compound Biox C/Biox SE is a blend of ethoxyquin and HMTBA-Cu; the compound abbreviated Biox SE is ethoxyquin emulsion; the compound abbreviated Biox T is an antioxidant blend sold under the trade name TOXGUARD®, and the compound abbreviated Biox Z is HMTBA-Zn is sold under the trade name MINTREX® Zn).
(§4) Briefly, a full cell pressure process, simulating commercial practice as far as possible with laboratory plant equipment, using an initial vacuum, suitable temperature, and an appropriate pressure period was used. The amount of preservative absorbed by the block, i.e., the retention, was calculated for each preservative. After the test blocks were treated and weighed to obtain absorption, they were exposed to open laboratory conditions until the solvent evaporated and the moisture content was relatively stable. Then they were placed in a conditioning room for 21 days. The blocks were tested in the unleached condition.
(§5) Preparation of soil culture bottles. A soil substrate with a water holding capacity between 20% and 40% and a pH between 5.0 and 8.0 was used. The soil substrate, sifted and lightly compacted by tapping, was placed in 8-oz cylindrical culture bottles fitted with screw caps without liners. The bottles were about half-full. This amount of soil, about 118 ml for an 8-oz. culture bottle, weighed not less than 90 g when oven-dried. […] The soil was leveled and one feeder strip per block was placed in each bottle. The soil-filled bottles were autoclaved for 30 min (one time), with the caps loosened. Lids on jars with a breather hole were covered with a strip of cloth first-aid tape.
(§6) Preparation of test cultures. […] Sections (e.g., 10 mm squares) were cut from near the leading edge of mycelium in petri dish cultures and placed in contact with an edge of a feeder strip on the soil of the culture bottles.

[2] = system: Postia placenta (Madison 698); test: as above; format: cell-based; conditions: for Mean percent weight loss (s.d. in parentheses), P. placenta: unleached southern pine blocks, 12 weeks, n = 5
Procedure: as §1, §2, §3, §4, §5, §6

[3] = over all Biox C retentions, ethanolamine retention 36 kg/m^3, no observable dose response

| Compound | weight losses, G. trabeum [1, 3] | Mean percent weight loss (s.d. in parentheses), G. trabeum ([1]; retention 0.05 kg/m^3) | Mean percent weight loss (s.d. in parentheses), G. trabeum ([1]; retention 0.10 kg/m^3) | Mean percent weight loss (s.d. in parentheses), G. trabeum ([1]; retention 0.50 kg/m^3) | Mean percent weight loss (s.d. in parentheses), G. trabeum ([1]; retention 2.00 kg/m^3) | weight losses, P. placenta [2, 3] | Mean percent weight loss (s.d. in parentheses), P. placenta ([2]; retention 0.05 kg/m^3) | Mean percent weight loss (s.d. in parentheses), P. placenta ([2]; retention 0.10 kg/m^3) | Mean percent weight loss (s.d. in parentheses), P. placenta ([2]; retention 0.50 kg/m^3) | Mean percent weight loss (s.d. in parentheses), P. placenta ([2]; retention 2.00 kg/m^3) | Mean percent weight loss (s.d. in parentheses), G. trabeum ([1]; retention 0.010 kg/m^3) | Mean percent weight loss (s.d. in parentheses), G. trabeum ([1]; retention 0.025 kg/m^3) | Mean percent weight loss (s.d. in parentheses), P. placenta ([2]; retention 0.010 kg/m^3) | Mean percent weight loss (s.d. in parentheses), P. placenta ([2]; retention 0.025 kg/m^3) |
| --- | --- | --- | --- | --- | --- | --- | --- | --- | --- | --- | --- | --- | --- | --- |
| CSCCC(O)C(=O)[O-].CSCCC(O)C(=O)[O-].[Cu+2] (centres unmarked) [Biox C, copper bis(2-hydroxy-4-methylthio)butanoic acid] | approximately 6.5% | 5.5 (0.7) % | 6.9 (1.8) % | 6.1 (0.7) % | 10.2 (5.3) % | ~5.0% | 4.5 (0.8) % | 5.0 (1.0) % | 6.1 (0.4) % | 5.1 (0.7) % |  |  |  |  |
| CC(C)(C)C(O)(CCc1ccc(Cl)cc1)Cn1cncn1 (centres unmarked) [Tebuconazole, reference compound] |  | 3.2 (1.3) % | 1.0 (0.4) % |  |  |  | 15.5 (13.6) % | 2.8 (3.1) % |  |  | 15.5 (3.7) % | 11.8 (8.3) % | 24.9 (21.8) % | 22.4 (17.4) % |
| CSCCC(O)C(=O)[O-].CSCCC(O)C(=O)[O-].[Zn+2] (centres unmarked) [Biox Z] |  | 38.8 (3.3) % | 26.4 (8.5) % | 28.9 (15.2) % | 27.8 (6.1) % |  | 50.4 (2.9) % | 47.7 (5.1) % | 42.6 (23.8) % | 26.1 (23.2) % |  |  |  |  |
